# Measured values as given in patent USRE44543E1, “Naphthalenic compounds as termite bait toxicants” (priority 2002, dated 2013).
# How the values were obtained:
# Formosan termites = experiment: Foraging box bait matrix bioassay, NHA sodium salt (Example 1); assay type: in vivo, Coptotermes formosanus
# Description: For bait matrices with a final concentrations of NHA sodium salt of either 250 ppm or 500 ppm, the following procedure was used. A total of 25 mg or 50 mg, respectively of the NHA sodium salt was weighed using a Mettler balance. The NHA sodium salt complex was placed into a 50 ml sterile screw cap conical tube (#62.547.004; Sarstedt, Newton, N.C.) and dissolved with 40 ml nutritive solution described in Example 2 of U.S. patent application Ser. No. 09/294,499 filed Apr. 20, 1999, hereby incorporated by reference. Under a laminar flow hood, this product was mixed with 27 ml more of sterile nutritional supplement in a 250 ml sterile glass bottle (prepared as reported by M. G. Rojas and J. A. Morales-Ramos, April 2001, “Bait matrix for delivery of chitin synthesis inhibitors to the Formosan subterranean termite [Isoptera: Rhinotermitidae],” J. Econ. Entomol. 94(2) :506-510) hereby incorporated by reference. The bottle was tightly closed with a screw cap and manually shaken for 2 minutes. The mixture was added to 33 g of sterile cellulose as reported by Rojas and Morales-Ramos (2001) supra. The mixture was manually homogenized using a stainless steel spatula. To encase the bait matrix, tubes made of fibrous casing material (#124B; L.E.M. Products, Inc., Miamitown, Ohio) were cut into 150 mm long portions as reported by Rojas and Morales-Ramos (2001) supra. Fifty grams of bait matrix containing NHA sodium salt was compacted into one end of the inlet tube, and the open end and of the inlet tube was closed with a rubber band. The bait casing was placed inside of the foraging box adjacent to a 10 g piece of pine wood, taking care that it was partially covered with sand. Control bait matrix was prepared minus NHA, and presented in the same way as the treatment matrix to Formosan termites taken from three different colonies, with two boxes per locality totaling six boxes of 2500 termites per treatment. (Rojas and Morales-Ramos [2001] supra). All the experimental boxes were maintained under dark conditions at 27±1° C., and 90±2% relative humidity. Observations were done every 72 hours until all the termites died. The time to reach 100% mortality was measured and recorded. Mean comparisons among treatments and control were conducted.
# Reticulitermes spp. = experiment: Field evaluation of bait matrix-NHA in underground Exterra bait stations, Past Christian, Mississippi; assay type: in vivo, Reticulitermes flavipes
# Description: Underground Exterra bait stations (Ensystex, Fayetteville, N.C.) were placed according to manufacturer directions around 20 houses in a heavily Reticulitermes spp. infested neighborhood surrounded by mainly pine forest in Past Christian, Miss. The stations were placed, approximately 20 feet apart and 5 feet away from the outside wall of the house. Monthly inspections were conducted to determine termite activity. Once termites were found in the station, 150 g of the ARS bait matrix (see Example 2) containing 250 ppm NHA was placed in the station for the first year of the experiment. The dose was increased in the second year to 500 ppm because of the constant movement of termites from the forest area to the stations. The bait matrix-NHA was prepared as above and exposed to the termites contained in the Exterra bait station, consecutively monthly inspections were conducted and bait matrix-NHA was added as required. Data on bait consumption, temperature of the soil and time to kill the colony was recorded. Reticulitermes flavipes were very abundant in the study site. The distribution of the infestation was in patches. For the typical infested house, termites were found in 3 of 6 stations. For this type of environmental setting, 600 g of bait matrix which is equivalent to 240 mg of NHA was required to kill the colony. It took about 9 months (from September-May) for the bait matrix to show its effectiveness which was evaluated by the presence of dead termites on the surface of the bait matrix container and interceptors.
# [1] = date 01/29 (17th of 18, second winter)
# [2] = date 02/26 (18th of 18, second winter)
# [3] = typical infested house, termites in 3 of 6 stations
structure (smiles),measurement,setting,value
"O=C1c2cccc3cccc(c23)C(=O)N1O [NHA, N-hydroxynaphthalimide]",acceptability of the bait,Formosan termites; NHA >500 ppm,reduced
same,time some termite colonies required to start feeding on the bait,Formosan termites; NHA >500 ppm,more than 8 hours
same,"time to mortality of a 2,500-worker colony",Formosan termites; depending on the health and age of the colony,about 3 weeks
same,NHA concentration at which consumption is almost non existent,Formosan termites; in vivo,"above 20,000 ppm"
same,NHA concentration at which the bait becomes unpalatable,Formosan termites; in vivo,"above 10,000 ppm"
same,time for the bait matrix to show its effectiveness (dead termites on bait container and interceptors),Reticulitermes spp.; September-May,about 9 months
same,Active Stations Number,Reticulitermes spp.; date 01/29 (5th of 18),6
same,Active Stations Percentage,Reticulitermes spp.; date 01/29 (5th of 18),24.0%
same,Bait (Cum. weight in g) Consumed,Reticulitermes spp.; date 01/29 (5th of 18),"1,500 g"
same,Active Stations Number,Reticulitermes spp.; [1],11
same,Active Stations Percentage,Reticulitermes spp.; [1],24.4%
same,Bait (Cum. weight in g) Consumed,Reticulitermes spp.; [1],"11,850 g"
same,Active Stations Number,Reticulitermes spp.; date 02/26 (6th of 18),12
same,Active Stations Percentage,Reticulitermes spp.; date 02/26 (6th of 18),50.0%
same,Bait (Cum. weight in g) Consumed,Reticulitermes spp.; date 02/26 (6th of 18),"1,500 g"
same,Active Stations Number,Reticulitermes spp.; [2],15
same,Active Stations Percentage,Reticulitermes spp.; [2],33.3%
same,Bait (Cum. weight in g) Consumed,Reticulitermes spp.; [2],"12,600 g"
same,Active Stations Number,Reticulitermes spp.; date 03/27 (7th of 18),13
same,Active Stations Percentage,Reticulitermes spp.; date 03/27 (7th of 18),56.5%
same,Bait (Cum. weight in g) Consumed,Reticulitermes spp.; date 03/27 (7th of 18),"1,500 g"
same,Active Stations Number,Reticulitermes spp.; date 05/01 (8th of 18),16
same,Active Stations Percentage,Reticulitermes spp.; date 05/01 (8th of 18),55.2%
same,Bait (Cum. weight in g) Consumed,Reticulitermes spp.; date 05/01 (8th of 18),"3,150 g"
same,Active Stations Number,Reticulitermes spp.; date 05/29 (9th of 18),11
same,Active Stations Percentage,Reticulitermes spp.; date 05/29 (9th of 18),36.7%
same,Bait (Cum. weight in g) Consumed,Reticulitermes spp.; date 05/29 (9th of 18),"3,750 g"
same,Active Stations Number,Reticulitermes spp.; date 06/26 (10th of 18),16
same,Active Stations Percentage,Reticulitermes spp.; date 06/26 (10th of 18),50.0%
same,Bait (Cum. weight in g) Consumed,Reticulitermes spp.; date 06/26 (10th of 18),"4,800 g"
same,Active Stations Number,Reticulitermes spp.; date 07/31 (11th of 18),12
same,Active Stations Percentage,Reticulitermes spp.; date 07/31 (11th of 18),33.3%
same,Bait (Cum. weight in g) Consumed,Reticulitermes spp.; date 07/31 (11th of 18),"6,000 g"
same,Active Stations Number,Reticulitermes spp.; date 08/28 (12th of 18),17
same,Active Stations Percentage,Reticulitermes spp.; date 08/28 (12th of 18),47.2%
same,Bait (Cum. weight in g) Consumed,Reticulitermes spp.; date 08/28 (12th of 18),"7,200 g"
same,Active Stations Number,Reticulitermes spp.; date 09/25 (13th of 18),21
same,Active Stations Percentage,Reticulitermes spp.; date 09/25 (13th of 18),52.5%
same,Bait (Cum. weight in g) Consumed,Reticulitermes spp.; date 09/25 (13th of 18),"7,950 g"
same,Active Stations Number,"Reticulitermes spp.; date 09/26 (1st of 18), NHA 250 ppm first year, 500 ppm second year",22
same,Bait (Cum. weight in g) Consumed,"Reticulitermes spp.; date 09/26 (1st of 18), from fully consumed bait bags",0.0 g
same,Active Stations Percentage,"Reticulitermes spp.; date 09/26 (1st of 18), of cumulative stations ever active",95.7%
same,Active Stations Number,Reticulitermes spp.; date 10/27 (2nd of 18),10
same,Active Stations Percentage,Reticulitermes spp.; date 10/27 (2nd of 18),43.5%
same,Bait (Cum. weight in g) Consumed,Reticulitermes spp.; date 10/27 (2nd of 18),600 g
same,Active Stations Number,Reticulitermes spp.; date 11/02 (14th of 18),18
same,Active Stations Percentage,Reticulitermes spp.; date 11/02 (14th of 18),42.9%
same,Bait (Cum. weight in g) Consumed,Reticulitermes spp.; date 11/02 (14th of 18),"10,800 g"
same,Active Stations Number,Reticulitermes spp.; date 11/20 (3rd of 18),10
same,Active Stations Percentage,Reticulitermes spp.; date 11/20 (3rd of 18),41.7%
same,Bait (Cum. weight in g) Consumed,Reticulitermes spp.; date 11/20 (3rd of 18),"1,200 g"
same,Active Stations Number,Reticulitermes spp.; date 11/27 (15th of 18),13
same,Active Stations Percentage,Reticulitermes spp.; date 11/27 (15th of 18),28.9%
same,Bait (Cum. weight in g) Consumed,Reticulitermes spp.; date 11/27 (15th of 18),"11,250 g"
same,Active Stations Number,Reticulitermes spp.; date 12/18 (4th of 18),8
same,Active Stations Percentage,Reticulitermes spp.; date 12/18 (4th of 18),33.3%
same,Bait (Cum. weight in g) Consumed,Reticulitermes spp.; date 12/18 (4th of 18),"1,500 g"
same,Active Stations Number,Reticulitermes spp.; date 12/29 (16th of 18),13
same,Active Stations Percentage,Reticulitermes spp.; date 12/29 (16th of 18),28.9%
same,Bait (Cum. weight in g) Consumed,Reticulitermes spp.; date 12/29 (16th of 18),"11,850 g"
same,NHA required to kill the colony (equivalent of bait matrix),Reticulitermes spp.; [3],240 mg
same,bait matrix required to kill the colony,Reticulitermes spp.; [3],600 g
